Values quoted from earlier work, collected in patent US7985733B1, “Buffer-based method for preparing bivalirudin drug product” (The Medicines Company, priority 2010, dated 2011).

Experiments:
[1] = pH at which the molecule carries no net charge
[2] = statement of CN 101244043
[3] = 25° C.

## CC[C@H](C)[C@H](NC(=O)[C@H](CCC(=O)O)NC(=O)[C@H](CCC(=O)O)NC(=O)[C@H](Cc1ccccc1)NC(=O)[C@H](CC(=O)O)NC(=O)CNC(=O)[C@H](CC(N)=O)NC(=O)CNC(=O)CNC(=O)CNC(=O)CNC(=O)[C@@H]1CCCN1C(=O)[C@H](CCCNC(=N)N)NC(=O)[C@@H]1CCCN1C(=O)[C@H](N)Cc1ccccc1)C(=O)N1CCC[C@H]1C(=O)N[C@@H](CCC(=O)O)C(=O)N[C@@H](CCC(=O)O)C(=O)N[C@@H](Cc1ccc(O)cc1)C(=O)N[C@@H](CC(C)C)C(=O)O [bivalirudin, D-Phenylalanyl-L-Prolyl-L-Arginyl-L-Prolyl-Glycyl-Glycyl-Glycyl-Glycyl-L-Asparagyl-Glycyl-L-Aspartyl-L-Phenylalanyl-L-Glutamyl-L-Glutamyl-L-Isoleucyl-L-Prolyl-L-Glutamyl-L-Glutamyl-L-Tyrosyl-L-Leucine]
[1]
  isoelectric point (pI): about 3.6
[2]
  solubility in water: easily soluble in water

## Maleate
[3]
  pKa (pK1): 2.0
  pKa (pK2): 6.2

## O=S(=O)(O)CCN1CCN(CCS(=O)(=O)O)CC1 [Piperazine-1,4-bis(2-ethanesulfonic acid)]
[3]
  pKa: 6.8
